Experimental data reported in publication PMC12162926, “A novel strategy for identifying hepatotoxic constituents in traditional Chinese medicine using dose-normalized intracellular accumulation as a cytotoxicity indicator: a case study of Jinlingzi San” (Frontiers in Pharmacology, 2025).

Columns and labels:
[1] = system: L-02 cells; test: Intracellular identification of L-02 cell-uptake components by LC–MS/MS; assay type: in vitro ADME, human; conditions: L-02 exposed to JLZS-containing medium 6.5 mg/mL for 2 h
Description: The powder of 25 g FT and 25 g RC was evenly blended and then refluxed twice with six-fold 50% ethanol (1: 6, w/v) for 1 h; the collected filtrate was evaporated to dryness and further dissolved in DMSO, after filtering using the 0.22-µm cellulose acetate membrane. JLZS-containing medium (6.5 mg/mL) was freshly prepared by diluting the filtrate with RPMI-1640. Likewise, RC-containing medium was freshly prepared in the same method independently.
L-02 cells were seeded on 9-cm-diameter cell culture plates; after ∼80% confluent, the cultured cells were incubated with 6.5 mg/mL JLZS-containing medium. After 2-h exposure, L-02 cells were quickly washed free of culture medium with cold PBS (−) twice and harvested with 1 mL of 0.25% trypsin-EDTA for cell isolation. The cell suspension (∼5 × 10^6 cells) was spun down, and the cells were further washed twice in cold PBS (−). Then, 200 µL of methanol was used to lyse the collected cells with vortex mixing for 1 min. The cell lysates were centrifuged at 12,000 rpm for 4 min, and 10 μL of the centrifugal supernatant was injected into the LC–MS/MS system for identified analysis.
The LC–MS/MS system consisted of a Thermo TSQ Quantum Ultra triple-quadrupole mass spectrometer equipped with an electrospray ionization source (San Jose, CA, United States). LCquan quantitation software (version 2.5.6, Thermo Fisher Scientific, Waltham, MA, USA) was used to control the LC–MS/MS system for data acquisition and analysis. Analytes and IS separation were conducted using a Waters XTerra® MS C18 column (3.0 mm × 50 mm, 5 µm) maintained at 20 °C. By injecting 5 µL samples with a flow rate of 0.2 mL/min, chromatographic separation was achieved using a mobile phase of 0.1% formic acid–water (A) and methanol (B) via gradient elution, 0.0–2.0 min, 35%–50% B; 2.0–2.1 min, 50%–55% B; 2.1–2.5 min, 55%–60% B; 2.5–14.0 min, 60% B. The analytes and IS were detected in the ESI source by polarity switching from positive for 0.0–8.0 min to negative-ion modes for 8.5–14.0 min in a single run with multiple reaction monitoring (MRM).

[2] = system: L-02 cells; test: Intracellular accumulation in L-02 cells by LC–MS/MS; assay type: in vitro ADME, human; conditions: for intracellular uptake in the JLZS group compared with the RC group: L-02, JLZS 6.5 mg/mL vs RC 3.25 mg/mL; for intracellular uptake in the JLZS group compared with the RC group / Intracellular concentration: n = 6; for Intracellular concentration: L-02, JLZS extracts 6.5 mg/mL
[3] = system: L-02 cells; test: Cell growth inhibition assay (CCK-8); assay type: cell-based, human; conditions: single compounds; for IC50: Homo sapiens, L02, L-02, 24 h exposure, read-out: IC50 (cell viability); for IC50 (cell viability): L-02, 24 h exposure
[4] = Stability of analytes in cell lysates (LC–MS/MS method validation); assay type: physicochemical; conditions: n=3; for Post-preparation stability RE%: 4 ℃, 24 h at autosampler; for Short-term stability RE%: 12 h at room temperature; for Long-term stability RE%: -80℃ for a month; for Freeze-thaw stability RE%: three freeze-thaw
Description: The stability of seven analytes including short-term stability (12 h at room temperature), post-preparation stability at 4 ℃ (24 h at autosampler), freeze-thaw stability (three freeze-thaw stability) and long-term stability (-80℃ for a month) was tested by analyzing three replicates at low and high QC levels during various sample storage and handling process.

[5] = parameters: method as in Gu et al., 2021; conditions: pharmacokinetic level, JLZS vs single herb; ref Gu et al., 2021; cited from earlier work

| SMILES | detection in cell lysates [1] | intracellular uptake in the JLZS group compared with the RC group [2] | Intracellular concentration ([2]; time 0.25 h) [ng/mL] | Intracellular concentration ([2]; time 0.5 h) [ng/mL] | Intracellular concentration ([2]; time 1 h) [ng/mL] | Intracellular concentration ([2]; time 1.5 h) [ng/mL] | Intracellular concentration ([2]; time 2 h) [ng/mL] | Intracellular concentration ([2]; time 3 h) [ng/mL] | Intracellular concentration ([2]; time 5 h) [ng/mL] | Intracellular concentration ([2]; time 8 h) [ng/mL] | Post-preparation stability RE% ([4]; high QC level) [%] | Post-preparation stability RE% ([4]; low QC level) [%] | Short-term stability RE% ([4]; high QC level) [%] | Short-term stability RE% ([4]; low QC level) [%] | Long-term stability RE% ([4]; high QC level) [%] | Long-term stability RE% ([4]; low QC level) [%] | Freeze-thaw stability RE% ([4]; high QC level) [%] | Freeze-thaw stability RE% ([4]; low QC level) [%] | IC50 (cell viability) [3] | elimination in the JLZS group compared with the single-herb group [5] | other results |
| --- | --- | --- | --- | --- | --- | --- | --- | --- | --- | --- | --- | --- | --- | --- | --- | --- | --- | --- | --- | --- | --- |
| COc1ccc2cc3[n+](cc2c1OC)CCc1cc2c(cc1-3)OCO2 [BER, berberine] | found in the cell lysates | decreased significantly | 3.2 ± 0.5 | 3.7 ± 0.3 | 5.5 ± 1.3 | 7.2 ± 2.5 | 8.3 ± 4.0 | 10.1 ± 1.7 | 12.3 ± 2.5 | 15.6 ± 4.9 | 3.1 | 1.8 | 2.5 | 5.6 | 1.2 | 1.8 | 6.9 | 5.6 | – | – | IC50 [3]: 41.2 µg/mL |
| c1c2c(cc3c1OCO3)-c1cc3ccc4c(c3c[n+]1CC2)OCO4 [COP, coptisine] | found in the cell lysates | decreased significantly | 38.3 ± 4.9 | 44.0 ± 11.4 | 67.5 ± 7.7 | 84.4 ± 21.2 | 98.1 ± 34.8 | 134.8 ± 24.4 | 197.6 ± 45.9 | 261.8 ± 60.2 | 6.8 | -0.6 | 6.2 | 5.6 | 6.6 | 4.0 | 5.0 | 0.7 | – | – | dose-normalized intracellular accumulation (ranking) ([2]; ratio of highest intracellular accumulation versus content in JLZS extracts, L-02): the highest; IC50 [3]: 14 µg/mL |
| COc1cc2c(cc1OC)[C@H]1[C@@H](C)c3ccc(OC)c(OC)c3CN1CC2 [COR, corydaline] | – | – | – | – | – | – | – | – | – | – | – | – | – | – | – | – | – | – | not detected IC50 values within the set concentration range | decreased significantly | – |
| COc1cc2c(cc1O)CC[n+]1cc3c(OC)c(OC)ccc3cc1-2 [JAT, jatrorrhizine] | found in the cell lysates | – | 13.4 ± 0.2 | 13.8 ± 0.8 | 14.9 ± 0.8 | 15.8 ± 1.8 | 16.3 ± 1.9 | 19.6 ± 1.0 | 21.2 ± 3.5 | 26.2 ± 6.0 | 4.7 | -0.2 | 8.0 | 5.3 | 4.0 | 1.9 | 8.0 | 2.9 | not detected IC50 values within the set concentration range | – | – |
| COc1ccc2c(c1OC)CN1CCc3cc4c(cc3C1C2)OCO4 (stereo not drawn) [THB, tetrahydroberberine] | – | – | – | – | – | – | – | – | – | – | – | – | – | – | – | – | – | – | not detected IC50 values within the set concentration range | decreased significantly | – |
| COc1cc2c(cc1OC)[C@@H]1Cc3ccc(OC)c(OC)c3CN1CC2 [THP, tetrahydropalmatine] | – | – | – | – | – | – | – | – | – | – | – | – | – | – | – | – | – | – | not detected IC50 values within the set concentration range | decreased significantly | – |
